The source made the active and inactive calls.
How the values were obtained:
[1] = HEK293 Cytotoxicity Assay Measured in Cell-Based System Using Plate Reader - 7071-01_Inhibitor_Dose_CherryPick_Activity_Set2.; assay type: functional
HEK293 = assay: HEK293T cell cytotoxicity, dose response, cytotoxicity control, ATP luminescence, cherry-pick samples (AID 687005); assay type: functional, cell-based; conditions: Homo sapiens;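 further: cells exposed to compound for 48 hours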
[2] = Jurkat T cell cytotoxicity, dose response, cytotoxicity control for P. falciparum gametocyte viability project, luminescence (AID 1117277); assay type: functional, cell-based;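 further: potency reflects loss of cellular ATP meaning fewer viable cells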
[3] = P. falciparum late gametocyte killing, dose response, luminescence (AID 1117278); assay type: functional, cell-based;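 further: gametocytes exposed to compound for 24 hours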
[4] = target: T1, Calpain-2 catalytic subunit (Sus scrofa, UniProt P43367); assay: pig calpain II inhibitor potency, dose response, biochemical, fluorogenic peptide substrate (AID 1420); assay type: functional
T1 sequence (P43367 whole entry): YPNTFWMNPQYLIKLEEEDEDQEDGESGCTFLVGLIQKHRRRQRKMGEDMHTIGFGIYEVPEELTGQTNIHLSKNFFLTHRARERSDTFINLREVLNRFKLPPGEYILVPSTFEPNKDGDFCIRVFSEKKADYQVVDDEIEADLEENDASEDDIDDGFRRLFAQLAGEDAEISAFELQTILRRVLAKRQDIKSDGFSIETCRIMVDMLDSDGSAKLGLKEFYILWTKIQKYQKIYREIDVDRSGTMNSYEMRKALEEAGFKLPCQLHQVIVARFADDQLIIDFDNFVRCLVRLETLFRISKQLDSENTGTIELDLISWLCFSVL

INS1 = assay: beta cell apoptosis inhibitors, cytokine rescue, dose response, luminescence, retest (AID 449756); assay type: functional, cell-based; conditions: Rattus norvegicus;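 further: cell death triggered by IL-1 beta plus TNF-alpha plus IFN-gamma mixture; protective hits raise ATP signal compared with cytokine alone wells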
[5] = target: T2, Histone-lysine N-methyltransferase NSD2 (Homo sapiens, UniProt O96028); assay type: biochemical
T2 sequence (O96028 whole entry): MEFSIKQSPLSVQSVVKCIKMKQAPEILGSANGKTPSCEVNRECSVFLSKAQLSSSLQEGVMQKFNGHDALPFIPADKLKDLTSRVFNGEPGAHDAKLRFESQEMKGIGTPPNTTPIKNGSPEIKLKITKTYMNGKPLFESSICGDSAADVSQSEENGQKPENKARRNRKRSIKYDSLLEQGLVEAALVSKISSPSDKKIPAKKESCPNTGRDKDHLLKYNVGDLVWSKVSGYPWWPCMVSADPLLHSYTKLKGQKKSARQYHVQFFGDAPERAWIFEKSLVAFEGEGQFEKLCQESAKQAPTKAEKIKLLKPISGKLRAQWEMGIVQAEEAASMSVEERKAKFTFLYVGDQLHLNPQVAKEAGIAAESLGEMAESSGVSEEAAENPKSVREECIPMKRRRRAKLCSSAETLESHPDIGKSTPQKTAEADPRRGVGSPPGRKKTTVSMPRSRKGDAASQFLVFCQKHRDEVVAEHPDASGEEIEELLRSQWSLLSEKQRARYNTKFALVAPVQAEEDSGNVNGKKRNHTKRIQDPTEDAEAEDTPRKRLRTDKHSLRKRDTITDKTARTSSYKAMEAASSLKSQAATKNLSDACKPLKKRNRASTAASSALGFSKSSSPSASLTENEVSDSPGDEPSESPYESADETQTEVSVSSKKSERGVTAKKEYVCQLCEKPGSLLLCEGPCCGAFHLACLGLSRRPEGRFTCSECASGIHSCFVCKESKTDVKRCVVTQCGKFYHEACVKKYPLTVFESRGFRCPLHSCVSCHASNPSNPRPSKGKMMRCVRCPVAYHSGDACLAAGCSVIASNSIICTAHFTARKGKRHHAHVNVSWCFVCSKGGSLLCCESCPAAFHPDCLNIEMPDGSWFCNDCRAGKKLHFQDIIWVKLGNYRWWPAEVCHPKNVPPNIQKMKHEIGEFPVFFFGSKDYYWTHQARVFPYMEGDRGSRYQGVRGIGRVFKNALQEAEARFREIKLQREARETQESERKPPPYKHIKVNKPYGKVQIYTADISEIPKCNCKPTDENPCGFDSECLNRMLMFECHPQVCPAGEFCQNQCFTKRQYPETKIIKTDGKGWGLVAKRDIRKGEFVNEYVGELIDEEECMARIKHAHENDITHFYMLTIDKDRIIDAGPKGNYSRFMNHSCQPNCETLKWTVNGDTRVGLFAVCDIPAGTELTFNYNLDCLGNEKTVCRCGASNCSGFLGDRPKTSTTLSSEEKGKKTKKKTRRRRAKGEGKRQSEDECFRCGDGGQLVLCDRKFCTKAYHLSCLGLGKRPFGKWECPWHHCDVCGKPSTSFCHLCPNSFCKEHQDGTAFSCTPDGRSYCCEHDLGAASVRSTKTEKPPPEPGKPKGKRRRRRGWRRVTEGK

[6] = target: Induced myeloid leukemia cell differentiation protein Mcl-1 (Homo sapiens, UniProt Q07820); assay type: functional
Induced myeloid leukemia cell differentiation protein Mcl-1, sequence (Q07820 whole entry): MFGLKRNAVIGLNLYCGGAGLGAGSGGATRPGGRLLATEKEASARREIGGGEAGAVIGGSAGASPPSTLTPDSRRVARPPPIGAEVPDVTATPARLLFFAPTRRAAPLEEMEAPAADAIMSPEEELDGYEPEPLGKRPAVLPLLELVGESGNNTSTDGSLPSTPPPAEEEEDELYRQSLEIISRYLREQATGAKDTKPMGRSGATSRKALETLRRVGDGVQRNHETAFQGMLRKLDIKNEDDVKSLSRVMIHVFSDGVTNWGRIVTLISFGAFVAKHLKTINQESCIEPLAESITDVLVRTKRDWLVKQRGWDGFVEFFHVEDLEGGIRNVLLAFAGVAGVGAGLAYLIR

[7] = target: T3, Small ubiquitin-related modifier 1 (Homo sapiens, UniProt P63165); assay: inhibitors of SUMO1 partner interactions, dose response, biochemical, FRET (AID 624383); assay type: functional; conditions: read-out: IC50_Mean
T3 sequence (P63165 whole entry): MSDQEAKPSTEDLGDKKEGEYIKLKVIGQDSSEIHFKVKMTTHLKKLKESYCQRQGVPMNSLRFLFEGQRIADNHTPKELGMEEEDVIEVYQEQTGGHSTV

[8] = target: T4, Rac GTPase-activating protein 1 (Homo sapiens, UniProt Q9H0H5); assay: MgcRacGAP GTPase-activating activity inhibitors, confirmation, biochemical, ADP Hunter fluorescence, primary and confirmatory (AID 624330); assay type: functional
T4 sequence (Q9H0H5 whole entry): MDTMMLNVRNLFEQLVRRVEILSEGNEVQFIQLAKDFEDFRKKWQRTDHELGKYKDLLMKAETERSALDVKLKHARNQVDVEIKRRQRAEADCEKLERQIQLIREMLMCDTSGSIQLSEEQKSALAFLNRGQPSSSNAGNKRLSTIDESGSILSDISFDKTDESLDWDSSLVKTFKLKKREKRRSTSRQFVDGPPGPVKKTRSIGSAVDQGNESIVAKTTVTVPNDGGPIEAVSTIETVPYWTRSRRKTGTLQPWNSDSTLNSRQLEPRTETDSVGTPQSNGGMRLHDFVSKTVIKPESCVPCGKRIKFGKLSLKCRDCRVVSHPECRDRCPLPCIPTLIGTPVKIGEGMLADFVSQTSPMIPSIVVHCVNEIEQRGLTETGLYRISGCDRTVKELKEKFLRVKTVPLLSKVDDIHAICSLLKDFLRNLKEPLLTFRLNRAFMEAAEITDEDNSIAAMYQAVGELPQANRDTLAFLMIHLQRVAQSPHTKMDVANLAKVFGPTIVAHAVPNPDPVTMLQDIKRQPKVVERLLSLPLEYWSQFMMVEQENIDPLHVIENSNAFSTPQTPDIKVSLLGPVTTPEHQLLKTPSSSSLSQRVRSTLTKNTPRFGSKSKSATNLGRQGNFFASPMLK

[9] = target: Eukaryotic translation initiation factor 4E (Mus musculus, UniProt P63073); assay: eIF4E–eIF4G protein interaction inhibitors, dose response, biochemical, TR-FRET (AID 855); assay type: functional;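 further: potency for disrupting eIF4E binding to eIF4GI seen as loss of FRET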
Eukaryotic translation initiation factor 4E, sequence (P63073 whole entry): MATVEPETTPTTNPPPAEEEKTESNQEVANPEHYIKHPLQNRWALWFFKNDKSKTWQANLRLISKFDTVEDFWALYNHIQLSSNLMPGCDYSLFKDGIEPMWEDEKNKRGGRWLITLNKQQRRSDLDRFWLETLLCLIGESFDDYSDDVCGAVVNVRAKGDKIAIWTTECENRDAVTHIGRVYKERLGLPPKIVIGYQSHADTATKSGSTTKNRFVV

[10] = target: T3, Small ubiquitin-related modifier 1; assay: inhibitors of SUMO1 peptide binding, dose response, biochemical, fluorescence polarization, uHTS hits (AID 624382); assay type: functional; conditions: read-out: IC50_Mean
ORF 73 = target: T5, ORF 73 (Human herpesvirus 8, UniProt O40947); assay: inhibitors of C-LANA binding to LBS DNA, dose response, biochemical, fluorescence polarization, cherry-picked samples (AID 504725); parameters: species or system Human gammaherpesvirus 8;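 further: fluorescence polarization of a labeled DNA duplex reporting LANA DNA binding; potency is for inhibitors that block LANA binding to the DNA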
T5 sequence (O40947 whole entry): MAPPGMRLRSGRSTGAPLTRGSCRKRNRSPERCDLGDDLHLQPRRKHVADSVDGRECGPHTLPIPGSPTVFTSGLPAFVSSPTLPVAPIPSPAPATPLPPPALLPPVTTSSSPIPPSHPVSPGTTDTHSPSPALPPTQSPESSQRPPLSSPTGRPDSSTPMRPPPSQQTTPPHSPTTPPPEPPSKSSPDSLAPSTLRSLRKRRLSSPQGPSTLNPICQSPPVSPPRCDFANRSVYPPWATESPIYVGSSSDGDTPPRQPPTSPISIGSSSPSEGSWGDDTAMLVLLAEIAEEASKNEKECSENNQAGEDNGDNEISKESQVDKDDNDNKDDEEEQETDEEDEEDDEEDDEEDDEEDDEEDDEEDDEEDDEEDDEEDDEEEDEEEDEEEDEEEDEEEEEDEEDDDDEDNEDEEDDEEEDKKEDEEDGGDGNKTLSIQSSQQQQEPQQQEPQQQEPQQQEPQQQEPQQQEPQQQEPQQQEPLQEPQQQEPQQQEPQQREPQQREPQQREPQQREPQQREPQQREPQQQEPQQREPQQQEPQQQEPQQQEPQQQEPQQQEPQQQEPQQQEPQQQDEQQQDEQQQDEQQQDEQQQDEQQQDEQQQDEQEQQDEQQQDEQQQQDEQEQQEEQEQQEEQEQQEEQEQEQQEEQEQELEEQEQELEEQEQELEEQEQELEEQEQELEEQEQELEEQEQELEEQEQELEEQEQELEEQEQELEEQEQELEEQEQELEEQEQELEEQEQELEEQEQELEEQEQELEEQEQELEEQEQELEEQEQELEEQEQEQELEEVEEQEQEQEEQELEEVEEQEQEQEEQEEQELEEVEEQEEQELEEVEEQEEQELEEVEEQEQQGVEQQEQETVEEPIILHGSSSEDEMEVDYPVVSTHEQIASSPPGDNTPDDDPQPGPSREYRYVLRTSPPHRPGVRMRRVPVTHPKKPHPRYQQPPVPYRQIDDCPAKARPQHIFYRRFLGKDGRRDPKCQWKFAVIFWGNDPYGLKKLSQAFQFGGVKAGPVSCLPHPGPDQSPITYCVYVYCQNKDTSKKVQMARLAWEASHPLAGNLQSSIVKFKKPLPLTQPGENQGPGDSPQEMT

[11] = THP-1 cell cytotoxicity, dose response, cytotoxicity control for Vif-APOBEC3G degradation inhibitor project, THP-1 cells (AID 1117359); assay type: functional; conditions: Human immunodeficiency virus 1, THP-1

| SMILES | AC50 [1] | AC50 (HEK293) | IC50 [2] | IC50 [3] | also measured |
| --- | --- | --- | --- | --- | --- |
| COC(=O)C1=C(C)N(Cc2ccccc2)C(=O)N[C@H]1c1cccc(F)c1 | 24.6 µM (active) | 24.6 µM (active) |  |  |  |
| Cc1ccc(-c2csc3nc(CN(C)Cc4ccccc4)nc(O)c23)cc1 |  |  | > 83.2 µM (inactive) | > 109 µM (inactive) |  |
| O=C(CN1CC[n+]2c(-c3cccs3)csc21)c1ccc(-c2ccccc2)cc1 |  |  | > 83.3 µM (inactive) | > 109 µM (inactive) | IC50 [4]: 22.1 µM (not active); AC50 (INS1): 2.39 µM (active) |
| N#Cc1c(SCC(N)=O)nc2c(c1-c1ccncc1)CCCC2 |  |  | > 83.3 µM (inactive) | > 109 µM (inactive) |  |
| CSc1ccc(/C=N/Nc2cccc(C(=O)O)c2)cc1 |  |  |  |  | AC50 [5]: 2.93 µM (active); IC50 [6]: 2.19 µM (active); IC50 [7]: 6.71 µM (active); IC50 [8]: 83.5 µM (active); IC50 [9]: 50 µM (inactive); IC50 [10]: > 66.6 µM (inactive); AC50 (ORF 73): 19.8 µM (active); CC50 [11]: > 40 µM (active) |
| C[C@@H]1CN([C@H](C)CO)S(=O)(=O)c2ccc(C#Cc3ccccn3)cc2O[C@H]1CN(C)Cc1ccccc1 | 5.16 µM (active) | 5.16 µM (active) |  |  |  |

— ChEMBL document CHEMBL1201862, “PubChem BioAssay data set” (2004)
